# Results reported in US20260021147A1, “COMPOSITIONS AND METHODS FOR TREATING INFLAMMATORY DISEASE” (The Regents of the University of Michigan, priority 2022, published 2026).
# “Also recorded” adds a separate entry of the source.
# How the values were obtained:
# MLNs = test: Microbiologic analysis of bacterial translocation to mesenteric lymph nodes; type: in vivo; details: allogeneic mice, day 18
# Description: Mesenteric lymph nodes (MLNs) were harvested from mice and homogenized in PBS and cultured anaerobically on BHI plates containing yeast extract and 5% sterilized rumen fluid (Fisher Scientific) and Columbia blood agar plates (BD) for 4 days at 37° C. Colony-forming units (CFUs) were counted and adjusted per organ. Bacteria were identified by MALDI Biotyper.
# [1] = Carbohydrates analysis of mouse feces by IC-MS; type: in vivo; details: allogeneic mice, day 18
# Description: To determine the relative abundance of carbohydrates in mouse feces samples, extracts were prepared and analyzed by ultra-HRMS. Fecal pellets were homogenized with a Precellys Tissue Homogenizer. Metabolites were extracted using 1 mL ice-cold 80/20 (v/v) methanol/water. Extracts were centrifuged at 17,000 g for 5 min at 4° C., and supernatants were transferred to clean tubes, followed by evaporation to dryness under nitrogen. Dried extracts were reconstituted in deionized water, and 5 μL was injected for analysis by IC-MS. IC mobile phase A (MPA; weak) was water, and mobile phase B (MPB; strong) was water containing 100 mM KOH. A Thermo Scientific Dionex ICS-5000+ system included a Thermo CarboPac PA-20-Fast column (4 μm particle size, 100×2 mm) with column compartment kept at 30° C. The autosampler tray was chilled to 4° C. The mobile phase flow rate was 200 μL/min, and the gradient elution program was: 0-0.5 min, 1% MPB; 0.5-10 min, 1-5% MPB; 10-15 min, 5-95% MPB; 15-20 min, 95% MPB; 20.5-25, 95-1% MPB. The total run time was 25 min. To assist the desolvation for better sensitivity, methanol was delivered by an external pump and combined with the eluent via a low dead volume mixing tee. Data were acquired using a Thermo Orbitrap Fusion Tribrid Mass Spectrometer under ESI negative ionization mode at a resolution of 240,000. […]
# intestinal microbiota [2] = test: Quantification of fecal bacterial density by 16S rRNA gene qPCR; type: in vivo, mice; details: 0.625 g/L meropenem in drinking water
# Description: Genomic DNA was isolated from stool as described above. qPCR was performed as previously described (Yang et al., 2015). In brief, 16S rRNA gene sequences were amplified from total fecal DNA using the primers 926F (5′-[…]-3′) and 1062R (5′-[…]-3′). Real-time PCR was carried out in 96-well optical plates on QuantStudio Flex 6 RT PCR (Thermo Fisher) and KAPA SYBR FAST Master Mix (Roche). The PCR conditions included one initial denaturing step of 10 min at 95° C. and 40 cycles of 95° C. for 20 sec and 60° C. for 1 min. Melting-curve analysis was performed after amplification. To determine bacterial density, a plasmid with a 16S rRNA gene of a murine Blautia isolate was generated in the pCR4 backbone and used as a standard.
# intestinal microbiota [3] = test: 16S rRNA sequencing of fecal and mucosal microbiome in mice; type: in vivo
# Description: Fecal samples which were collected from patients and mice and colonic mucosal samples, which were collected from mice were weighed before DNA isolation. […] The quality and quantity of the barcoded amplicons were assessed on an Agilent 4200 TapeStation system (Agilent) and Qubit Fluorometer (Thermo Fisher Scientific), and libraries were prepared after pooling at equimolar ratios. The final libraries were purified using QIAquick gel extraction kit (28706X4, Qiagen) and sequenced with a 2×250 base pair paired-end protocol on the Illumina MiSeq platform.
# For differential abundance analysis, abundances of sequences belonging to taxonomical groups were included for analysis using the Mann-Whitney U test and adjusted for multiple comparisons using the method of Benjamini-Hochberg. Paired samples were analyzed using the Wilcoxon signed rank test with adjustment for multiple comparisons.
# [4] = Meropenem concentration in stool during drinking water administration; type: in vivo; details: 48 hours after starting meropenem treatment, normal SPF mice
# Description: In a murine model with a mucin-deficient mutate strain of BT, piperacillin/tazobactam was given at a concentration of 3.2 g/L in combination with vancomycin and metronidazole dosed 1.5 mg daily by oral gavage from days −16 to −12 relative to transplant.
# To further explore the relationship between meropenem and intestinal GvHD, the effects of meropenem on GvHD was examined in a mouse model of allo-HSCT. A method of administering meropenem to mice that mimicked the effects of meropenem on the intestinal microbiome of patients was developed. Meropenem concentrations in the cecal lumen of mice were quantified 4, 8, 24, 48 and 96 hours after subcutaneous injection. […] Drinking water was then evaluated as a means of continuously administering meropenem to mice, using bacterial density quantified by 16S ribosomal RNA (16S rRNA) gene quantitative PCR (qPCR) to gauge reductions of the intestinal microbiota.
# allo-HSCT patients = test: Retrospective study of 295 allo-HSCT patients: acute GvHD by antibiotic exposure; type: in vivo, human; details: until day 100; antibiotic exposure days −10 to 30
# Description: 295 patients with acute myeloid leukemia (AML) or myelodysplastic syndrome (MDS) underwent allogeneic hematopoietic stem cell transplantation (allo-HSCT) with fludarabine plus busulfan as conditioning therapy and tacrolimus and methotrexate as GvHD prophylaxis from 2011 and 2016 at MD Anderson Cancer Center and were analyzed retrospectively. Patients were classified by antibiotic exposures, including those who received neither cefepime nor meropenem, those who received cefepime alone, those who received meropenem alone and those who received both cefepime and meropenem from day −10 to day after allo-HSCT. Acute GvHD was diagnosed by clinical and/or pathological findings, and graded according to standard criteria (Przepiorka et al., 1995).
# intestinal microbiota [5] = test: Fecal microbiome of 44 allo-HSCT patients, pre-HSCT versus day 14; type: in vivo, human; details: pre-HSCT vs day 14, paired analysis
# Description: Fecal samples which were collected from patients and mice and colonic mucosal samples, which were collected from mice were weighed before DNA isolation. In brief, genomic DNA was isolated using the QIAamp DNA mini kit (51306, Qiagen) according to the manufacturer's protocol that was modified to include an intensive bead-beating lysis step. The V4 region of 16S rRNA gene was amplified by PCR from 100 ng of each of extracted and purified genomic DNA using 515 forward and 806 reverse primer pairs (Caporaso et al., 2012). The quality and quantity of the barcoded amplicons were assessed on an Agilent 4200 TapeStation system (Agilent) and Qubit Fluorometer (Thermo Fisher Scientific), and libraries were prepared after pooling at equimolar ratios. […]
# Sequencing data from paired-end reads were de-multiplexed using QIIME 2 (Caporaso et al., 2010). Merging of paired-end reads, dereplicating, and length filtering was performed using VSEARCH 2.17.1 (Rognes et al., 2016). […] Weighted UniFrac distances (Lozupone et al., 2011) were determined using QIIME 2, visualized using principal coordinate analysis, and evaluated for statistical significance using permutational multivariate analysis of variance (PERMANOVA) testing. […] Paired samples were analyzed using the Wilcoxon signed rank test with adjustment for multiple comparisons.
# [6] = Short chain fatty acids profiling of mouse feces by IC-MS; type: in vivo, mice; details: meropenem-treated allo-HSCT mice, day 18
# Description: To determine the relative abundance of short chain fatty acids in mouse feces samples, extracts were prepared and analyzed by ultra-high resolution mass spectrometry (HRMS). Fecal pellets were homogenized with a Precellys Tissue Homogenizer. Metabolites were extracted using 1 mL ice-cold 0.1% Ammonium hydroxide in 80/20 (v/v) methanol/water. Extracts were centrifuged at 17,000 g for 5 min at 4° C., and supernatants were transferred to clean tubes, followed by evaporation to dryness under nitrogen. Dried extracts were reconstituted in deionized water, and 5 μL was injected for analysis by IC-MS. IC mobile phase A (MPA; weak) was water, and mobile phase B (MPB; strong) was water containing 100 mM KOH. A Thermo Scientific Dionex ICS-5000+ system included a Thermo IonPac AS11 column (4 μm particle size, 250×2 mm) with column compartment kept at 30° C. The autosampler tray was chilled to 4° C. The mobile phase flow rate was 360 μL/min, and the gradient elution program was: 0-5 min, 1% MPB; 5-25 min, 1-35% MPB; 25-39 min, 35-99% MPB; 39-49 min, 99% MPB; 49-50, 99-1% MPB. The total run time was 50 min. To assist the desolvation for better sensitivity, methanol was delivered by an external pump and combined with the eluent via a low dead volume mixing tee. Data were acquired using a Thermo Orbitrap Fusion Tribrid Mass Spectrometer under ESI negative ionization mode at a resolution of 240,000. […]
structure (smiles),measurement,setting,value
C[C@@H](O)[C@H]1C(=O)N2C(C(=O)O)=C(S[C@@H]3CN[C@H](C(=O)N(C)C)C3)[C@H](C)[C@H]12 [meropenem],bacterial loads in MLNs,MLNs,Higher bacterial loads
same,levels of luminal monosaccharides in the colon,[1],significantly lower concentrations of arabinose and xylose; also recorded: decreased levels of xylose
same,reduction in fecal bacterial density,intestinal microbiota [2],one-log reduction
same,abundances of Bacteroides and several other genera,"intestinal microbiota [3]; allogeneic mice, day 21",significantly higher abundances
same,relative abundance of Clostridia,"intestinal microbiota [3]; meropenem-treated allogeneic mice, from day 7 until 6 days after stopping",depleted; also recorded: significantly decreased
same,compositional differences between luminal and mucosal samples,"intestinal microbiota [3]; treated allogeneic mice, PERMANOVA testing",loss of this distinction
same,meropenem concentration in stool,[4],0.11 ± 0.07 µg/g
same,incidence of acute intestinal GvHD,allo-HSCT patients,increased
same,change of genus Bacteroides from baseline,intestinal microbiota [5],significant expansion of bacteria from the genus Bacteroides
same,fecal levels of SCFAs,[6],reduced fecal levels of SCFAs
